The values below come from ChEMBL document CHEMBL3507680, “University of Dundee, Gates Library screen for HepG2 cell viability”.

The data set can be described thus: Human HepG2 cell viability assay in 384 well format. The data set is classed as toxicity, cell-based. On the set-up: dose 125 nL, time 70.5 hour; cytotoxicity at 70.5 h: concentration not given beside the values. As to conditions: HepG2 cells, read-out: Inhibition.
In the case of `COc1cccc(F)c1C(C)NC(=O)NCCc1ccc(C)nc1` (centres undefined), the cytotoxicity at 70.5 h worked out at 29.6%.

Turning to `Cc1n[nH]c2ncc(CNC3CCCN(c4ncccn4)C3)cc12` (centres undefined), the cytotoxicity at 70.5 h was 0.0496%.

Take `CCOc1cccc(COC(=O)c2cc(C)on2)n1`: the cytotoxicity at 70.5 h was found to be 1.07%.

Turning to `CC(C)N1[C@H](CN2CCCC2)C[C@@H]2CN(C(=O)c3ccoc3)CC[C@@H]21`, the cytotoxicity at 70.5 h was found to be 1.33%.

With `CCCC1CCCN(C(=O)CNC(=O)c2ccoc2C)CC1` (centres undefined), the cytotoxicity at 70.5 h is -18.9%.

Take `COCCn1ccc2cc(C(=O)NC3CCOC(C)(C)C3)ccc21` (centres undefined): the cytotoxicity at 70.5 h was -2.78%.

For `CC(C)(C)CN1CC[C@H](c2nnc(Cc3c[nH]c4ccccc34)o2)C1`, the cytotoxicity at 70.5 h was 15.2%.

`CCc1nnc(CNCC2CCN(CC(O)c3ccccc3)CC2)o1` (centres undefined): the cytotoxicity at 70.5 h turned out to be 15.4%.

Regarding `O=C(CCC(=O)NCc1cccc(Br)c1)NCCN1CCCC1`, the cytotoxicity at 70.5 h is 23.6%.

Turning to `c1cc(-c2ccn(CCN3CCCC3)n2)cc(-c2nccs2)c1`, the cytotoxicity at 70.5 h was -6.38%.

Regarding `CO[C@@H]1CCN(c2nnc(C)s2)C[C@@H]1Cc1ccccc1`, the cytotoxicity at 70.5 h is -2.42%.

For `COc1cc(C(=O)NC(CC(=O)O)c2cccs2)cc(Cl)c1OC` (centres undefined), the cytotoxicity at 70.5 h is -8.1%.

In the case of `CNC(=O)[C@@H]1C[C@@H](N)CN1C1CCN(c2ccccc2F)CC1`, the cytotoxicity at 70.5 h was -7.57%.

With `Cc1cnc(C(=O)N[C@H]2CN(CCS(C)(=O)=O)C[C@@H]2C2CC2)cn1`, the cytotoxicity at 70.5 h amounted to 12.4%.

As for `CSCC(=O)N1CCC2(CC1)c1ccccc1CC2O` (centres undefined), the cytotoxicity at 70.5 h was 16.5%.

For `O=c1c(NCCNCCO)c(N2CCN(c3ccc(F)cc3)CC2)c1=O`, the cytotoxicity at 70.5 h was -7.08%.

For the compound `CCOC(=O)c1coc(N2CCC(C(O)CC(C)C)CC2)n1` (centres undefined), the cytotoxicity at 70.5 h is -1.6%.

Take `Cc1cnc(N2C[C@@H]3[C@@H](C(=O)NCC(C)C)CCS(=O)(=O)[C@@H]3C2)nc1`: the cytotoxicity at 70.5 h came out at 0.36%.

As to `CN1CCCN(C(=O)c2cccn2-c2ccc3c(c2)OCCO3)CC1`, the cytotoxicity at 70.5 h is -5.24%.

With `CC[C@H]1CN2CC[C@H]1C[C@@H]2CNCc1cccc(C#N)c1`, the cytotoxicity at 70.5 h came out at 13%.

Consider `Cc1nnc(Nc2cccc(C3CCN(CCO)CC3)n2)s1`, for which the cytotoxicity at 70.5 h was -13.5%.

Take `CC(C)(C)c1cn2nc(N3CCOC(Cn4cncn4)C3)sc2n1` (centres undefined): the cytotoxicity at 70.5 h was -15.9%.

On to `NCCC1CN(Cc2cnc3c(-c4ccccc4)cnn3c2)CCO1` (centres undefined), for which the cytotoxicity at 70.5 h was -2.68%.

With `O=C(O)c1ccc(CN2CCC(c3ccnc4ccnn34)CC2)cc1`, the cytotoxicity at 70.5 h is -12%.

Consider `COCC(=O)N1CCC2(CCC2NC(=O)c2ccn(C)c2)CC1` (centres undefined), for which the cytotoxicity at 70.5 h is -9.35%.

Regarding `CCOCCN1CCN(CC(=O)NC2(C#N)CCCC2)CC1C` (centres undefined), the cytotoxicity at 70.5 h was found to be 10.7%.

Turning to `COc1ncccc1N(C)C(=O)Cn1cc(-c2ccccc2)nn1`, the cytotoxicity at 70.5 h is -4.75%.

`COCCN1CCn2c(CN(C)C(C)C)cnc2C1`: the cytotoxicity at 70.5 h is -7.59%.

On to `COc1ccc(OC)c(C2C3=C(COC3=O)Nc3[nH]nc(C)c32)c1` (centres undefined), for which the cytotoxicity at 70.5 h came out at 32%.

On to `CCc1nnc(CN(C)CC2CCCCC2)o1`, for which the cytotoxicity at 70.5 h was -0.472%.

Turning to `Cc1oncc1C(=O)N1CC2CC1(C(=O)NCc1ccco1)C2`, the cytotoxicity at 70.5 h was -10.9%.

As to `CO[C@H]1C(=O)N(C)C2(CCNCC2)[C@@H]1C(=O)Nc1ccccc1`, the cytotoxicity at 70.5 h was -10.2%.

Consider `CN(C)C(=O)N1CCC(c2nc3ccc(N4CCCC4)cn3n2)CC1`, for which the cytotoxicity at 70.5 h was -4.23%.

With `Brc1ccc(NCCCOC2CCOCC2)nc1`, the cytotoxicity at 70.5 h was -1.01%.

Regarding `Cc1nnc(SCCCNc2cc(C3CC3)ncn2)s1`, the cytotoxicity at 70.5 h was 22.4%.

`CC(C)NC(=O)[C@H](C)NC(=O)N1CCN(c2ccc(Cl)cc2)CC1`: the cytotoxicity at 70.5 h is -15.6%.

Consider `Cc1[nH]c2ccc(C#N)cc2c1CCNc1ncnc2c1CCNCC2`, for which the cytotoxicity at 70.5 h was -1.54%.

In the case of `Cc1cc(NC(=O)c2ccc(N3CCOCC3)c(F)c2)[nH]n1`, the cytotoxicity at 70.5 h is -1.35%.

With `CCn1cnnc1CNC(=O)N(C)Cc1ccc(Cl)cc1Cl`, the cytotoxicity at 70.5 h was 3.74%.

In the case of `NC(=O)C1CN(C(=O)NCC2(c3ccc(F)cc3)CCC2)CCO1` (centres undefined), the cytotoxicity at 70.5 h is 1.35%.

As to `Cc1ccc(CNc2ccn(CCc3ccncc3)n2)s1`, the cytotoxicity at 70.5 h is 2.73%.

In the case of `CN(C)S(=O)(=O)N1CCCC1C(=O)N1CCSCC1` (centres undefined), the cytotoxicity at 70.5 h is 22.8%.

As for `Cc1noc2nc(C3CCN(CC4CCCCC4)CC3)cc(C(F)F)c12`, the cytotoxicity at 70.5 h is 1.17%.

`Cc1noc([C@@H]2C[C@H]3OCC[C@H]3N(Cc3ccoc3)C2)n1`: the cytotoxicity at 70.5 h was -6.19%.

Take `O=c1cc2c(nn1CN1CCN(c3cccc(Cl)c3)CC1)CCC2`: the cytotoxicity at 70.5 h was -6.87%.

Consider `CCOCC(=O)N1C[C@@H]2CCN(c3cnccn3)C[C@@H]2C1`, for which the cytotoxicity at 70.5 h is -3.75%.

Regarding `N[C@H]1CN(C(=O)CCC(F)(F)F)C[C@@H]1c1ccccc1`, the cytotoxicity at 70.5 h is -5.15%.

Take `CCOC(=O)c1ccc(NC(=O)c2cc3c([nH]c2=O)CCCC3)cc1`: the cytotoxicity at 70.5 h was -14.4%.

For the compound `CN(C)CC1CSCCCN1C(=O)Nc1ccc(C(C)(C)C)cc1` (centres undefined), the cytotoxicity at 70.5 h came to 5.94%.

In the case of `COc1cccc(CN2CCC3(CC2)CCN(c2ncccn2)C3)c1`, the cytotoxicity at 70.5 h is 2.21%.

`CCC1(O)CCCN(c2ncnc3c2c(C)nn3C)C1` (centres undefined): the cytotoxicity at 70.5 h was -4.68%.

Regarding `CCC(C)Oc1ccc(CNCCNS(C)(=O)=O)cc1Cl` (centres undefined), the cytotoxicity at 70.5 h was -0.417%.

Consider `NC(=O)c1cc(C2CCCN(CCc3ccc4c(c3)CCO4)C2)n[nH]1` (centres undefined), for which the cytotoxicity at 70.5 h was -19%.

In the case of `CCC(C)(CNC(=O)c1ccon1)NC(=O)c1ccon1` (centres undefined), the cytotoxicity at 70.5 h was -8.49%.

Take `Cc1ccsc1C(=O)N1CC(C(=O)N2CCOCC2)C2(CCOCC2)C1` (centres undefined): the cytotoxicity at 70.5 h was found to be 24.8%.

On to `Cn1nccc1-c1cncc(C2CCCN(S(C)(=O)=O)C2)n1` (centres undefined), for which the cytotoxicity at 70.5 h is -7.56%.

For `Cc1cc(C)n(CC(C)NC(=O)c2cc(C(C)C)on2)n1` (centres undefined), the cytotoxicity at 70.5 h was -4.49%.

For `CCS(=O)(=O)N1CCc2c(cnc(-c3cccnc3)c2C(=O)O)C1`, the cytotoxicity at 70.5 h is 10.1%.

In the case of `CC(CNC(=O)CCc1ccccn1)c1ccsc1` (centres undefined), the cytotoxicity at 70.5 h is -16.6%.

Take `Cc1cc(N(C)Cc2noc(C)n2)n2nc(C)c(C)c2n1`: the cytotoxicity at 70.5 h is -8.45%.

In the case of `CCc1nnc2n1CCN(C(=O)c1ccc(-c3ccco3)nc1C)C2`, the cytotoxicity at 70.5 h came to 10%.

Turning to `O=C(NCCc1nc(-c2ccccn2)no1)c1ccc(C2CCCO2)s1` (centres undefined), the cytotoxicity at 70.5 h was -5.15%.

For the compound `Cn1c(-c2ccc(F)cc2)cn2cc(C(=O)N3CCC(N)C3)nc2c1=O` (centres undefined), the cytotoxicity at 70.5 h is -9.46%.

Turning to `Cc1ccc(-c2cc(CNC(=O)N3CCC(O)CC3)on2)cc1`, the cytotoxicity at 70.5 h was found to be 0.512%.

On to `Cc1cnc(CN(C)C2CCN(Cc3nc4c(F)cccc4[nH]3)C2)o1` (centres undefined), for which the cytotoxicity at 70.5 h stood at 1.64%.

In the case of `Cc1ccc(NC2CCN(C(=O)c3cccnc3O)CC2)nn1`, the cytotoxicity at 70.5 h is 16.5%.

As to `O=C(NCCC1COc2ccccc2O1)c1ccc(-c2cn[nH]c2)nc1` (centres undefined), the cytotoxicity at 70.5 h amounted to 4.75%.

`Cc1nnc2n1CCN(Cc1ccc3c(c1)OCCO3)C2`: the cytotoxicity at 70.5 h was -2.45%.

In the case of `Cc1ccc(-c2cnnc(N3CCCC3c3nonc3C)n2)o1` (centres undefined), the cytotoxicity at 70.5 h is -3.66%.

In the case of `CCCc1cncnc1N1CCC(NCCc2ccc(O)cc2)CC1`, the cytotoxicity at 70.5 h was -6.17%.

With `Cc1cc(C2CCCN(CCS(=O)(=O)c3ccccc3)C2)n[nH]1` (centres undefined), the cytotoxicity at 70.5 h was -8.26%.

As to `N#Cc1ccnc(N2CCN(CC(O)c3ccc(F)c(F)c3)CC2)c1` (centres undefined), the cytotoxicity at 70.5 h is -2.47%.

For the compound `O=C(CN1CCOc2ccccc2C1)N1Cc2cnn(CCO)c2C1`, the cytotoxicity at 70.5 h was -0.755%.

Consider `CCOCc1nnc(NCc2cccc(C)c2)o1`, for which the cytotoxicity at 70.5 h was -3.75%.

Take `CCN(Cc1cc(Cl)ccc1OC)Cc1nccn1C`: the cytotoxicity at 70.5 h was 12.7%.

Take `CC(C)(C)c1cc(NC(=O)CN2CCn3c(nnc3C3CC3)C2)on1`: the cytotoxicity at 70.5 h came to 3.06%.

With `CC1CCc2n[nH]c(C(=O)NCCc3ccco3)c2C1` (centres undefined), the cytotoxicity at 70.5 h is -2.98%.

As for `CCOc1cc(CN(C)CC(=O)O)ccc1OC(F)F`, the cytotoxicity at 70.5 h was 6.63%.

As for `Cc1cc(C(=O)NCCC(C)C)ccc1NS(C)(=O)=O`, the cytotoxicity at 70.5 h is -11%.

As for `COCCOCC(=O)NC1CCN(c2ccccn2)CC1`, the cytotoxicity at 70.5 h amounted to 16.4%.

On to `CC(C)CN1CCn2nc(CNc3ncnc4[nH]cnc34)cc2C1`, for which the cytotoxicity at 70.5 h is 10.6%.

Take `Cc1nc(C2CCCCN2C(=O)c2ccccc2)ncc1C(=O)N(C)C` (centres undefined): the cytotoxicity at 70.5 h was -12%.

On to `Cc1nc(C)n(CC2CCCN2CCOc2cccc(F)c2)n1` (centres undefined), for which the cytotoxicity at 70.5 h is -9.85%.

For the compound `c1cncc(CN2CCCn3nnc(COCC4CC4)c3C2)c1`, the cytotoxicity at 70.5 h is -9.26%.

Take `CS(=O)(=O)CCC(=O)Nc1cc(F)ccc1OCC1CCCO1` (centres undefined): the cytotoxicity at 70.5 h is 12.1%.

As to `Cc1nn(C2CCS(=O)(=O)C2)c(O)c1Cc1cccc(Cl)c1` (centres undefined), the cytotoxicity at 70.5 h is -17.9%.

Consider `NC(=O)c1cc2c(nc1CCOc1ccc(F)cc1)CCC2`, for which the cytotoxicity at 70.5 h was -2.31%.

On to `CN(C(=O)CCc1cccs1)C1CCCN(C2Cc3ccccc3C2)C1` (centres undefined), for which the cytotoxicity at 70.5 h was -1.24%.

For `COCC1CN(Cc2ccoc2)Cc2nn(CC3CC3)cc21` (centres undefined), the cytotoxicity at 70.5 h amounted to 18.3%.

For `CC(=O)N1CCCC1C(=O)NCCOc1cc(C)cc(C)c1` (centres undefined), the cytotoxicity at 70.5 h was -30.3%.

Turning to `CC(=O)N1CCN(Cc2csc(-c3cnn(C)c3)n2)CC1`, the cytotoxicity at 70.5 h was determined as 2.34%.

Regarding `CN1CCC2(CCN(S(=O)(=O)c3ccc(-c4cnco4)s3)CC2)C1`, the cytotoxicity at 70.5 h is -8.53%.

Regarding `c1ccc(Cc2cncc(C3CCCN3C3CCOCC3)n2)cc1` (centres undefined), the cytotoxicity at 70.5 h was -6.45%.

Consider `Cc1cccc(NC(=O)NCC2(N3CCOCC3)CCSC2)c1` (centres undefined), for which the cytotoxicity at 70.5 h is 3.35%.

Turning to `CC(C)n1[nH]c(=O)c2c1NC(=O)CC2c1cccc(Br)c1` (centres undefined), the cytotoxicity at 70.5 h is -12.9%.

Turning to `O=C(COCC(=O)N(c1ccccc1)c1ccccc1)N1CCOCC1`, the cytotoxicity at 70.5 h is -5.79%.

As to `O=C(N1CCCC1)N1Cc2nccn2CC(CN2CCCC2)C1` (centres undefined), the cytotoxicity at 70.5 h is -8.56%.

With `CC(C)COC[C@@H]1CC[C@H]2[C@H](CCN2C(=O)c2ccncc2F)O1`, the cytotoxicity at 70.5 h was determined as 1.98%.

For `Cc1cccnc1NC(=O)NC(CCO)C(C)(C)C` (centres undefined), the cytotoxicity at 70.5 h is -2.8%.
